Laboratory results as given in patent US9446105B2, “Chimeric antigen receptor specific for folate receptor β” (THE TRUSTEES OF THE UNIVERSITY OF PENNSYLVANIA, priority 2013, dated 2016).
Entries after “also recorded” stand apart in the source; their conditions may differ.

What was measured:
[1] = tested on: FRβ expression on human AML cell lines; assay: ATRA treatment of AML cell lines, FRβ surface expression by flow cytometry; format: cell-based; conditions: 10 nM ATRA
Protocol: (§1) AML cell lines were plated on d0 at 2.5×10^5 per mL in complete media with final concentration 10 nM ATRA. On d3 fresh media with 10 nM ATRA was added to keep cells at 2.5×10^5 per mL. On d5 viable AML cells were washed and counted with trypan blue exclusion. Cells were then stained for FRβ surface expression and analyzed by flow cytometry, processed for RNA extraction, or used in co-cultures for functional assays.
Tumor cell surface expression of FRβ was detected by m909-IgG antibody (Dimiter Dimitrov) conjugated to biotin (EZ-Link Biotinylation Kit, Thermo). To block Fc receptor binding, tumor cells were incubated with 50 ug/mL unlabeled human IgG (Jackson ImmunoResearch) for 10 min. 3-5 ug/mL m909-biotin or human IgG-biotin isotype control was added, and cells were labeled for 30 min at 4 degrees, washed with FACS buffer, and labeled with Streptavidin-APC (BD) for 25 min at 4 degrees. Cells were washed, resuspended with 7AAD, and analyzed by flow cytometry.

ATRA-treated THP1 = assay: CAR T cell recognition of ATRA-treated AML cell lines (cytokine release); format: cell-based, human; conditions: 10 nM ATRA
Protocol: These assays were performed by co-culture of 10^5 CAR+ T cells with 10^5 target cells per well (or media alone) in triplicate in 96-well plates in a 200 μL volume of complete media. After ˜24 hours, plates were centrifuged at 1200 RPM to pellet the cells, and co-culture supernatants were removed and assayed for the presence of IFN-γ by ELISA (Biolegend). Values represent the mean of triplicate wells. IL-2, IL-4, IL-10, IFN-γ, and TNF-α cytokines were measured by flow cytometry with Cytometric Bead Array (BD Biosciences). The cell pellets were then labeled with antibodies for CD3 and CD69, and assessed by flow cytometry. Live, CD3+ gates were used for analysis of CD69 upregulation. For m909 CAR T cells, GFP was used as a marker for CAR+ cells. In some cases cell pellets were labeled for FRβ surface expression following co-cultures.
as §1, with “On d3 fresh media with 10 nM ATRA was added to keep cells at 2.5×10^5 per mL.” left out
Cell lines and CAR+ T cells were prepared as above (for cytokine release assays). […] Culture supernatants were then collected and analyzed for cytokines as described.

Structure (SMILES): CC1=C(/C=C/C(C)=C/C=C/C(C)=C/C(=O)O)C(C)(C)CCC1 [ATRA, all-trans retinoic acid]
- FRβ expression on AML cells [1]: enhanced the intensity of FRβ expression on the AMLs; also recorded: increases FRβ expression; also recorded: enhanced surface expression of FRβ; also recorded: induced FRβ upregulation
- IFNγ secretion by CAR T cells towards ATRA-treated AML cells (ATRA-treated THP1): enhances; also recorded: IFNγ production
- immune recognition of ATRA-treated AML cells by FRβ CAR T cells (ATRA-treated THP1): increased immune recognition by FRβ CAR T cells; also recorded: increased immune recognition by m909 CAR T cells; also recorded: enhances FRβ-mediated m909 CAR T cell recognition; also recorded: increases immune recognition
